According to patent publication US20230365542A1, “Selective Agonists of 5-HT2A Receptor and Methods of Use” (Yale University, priority 2020, published 2023):
“Also recorded” adds a separate entry of the source. Where two headings read alike, the source gives them in different places.

Legend:
C57BL/6J mice [1] = assay: Open field locomotion in mice; type: in vivo; details: i.p.
Protocol: (§1) Open field: this apparatus has been described in the literature (Acta Crystallographica Section D, 2010, 66:486-501). Mice were placed into the open field for 30 min, injected with vehicle, (+)-LSD-(+)-tartrate (NIDA Drug Supply Program, Bethesda, MID), 38, or 33 (i.p.), and returned immediately to the open field for 30 min. Locomotion was monitored using Fusion Integra software (Omnitech, Columbus, OH).
(§2) Statistics: Statistical analyses were performed with IBM SPSS Statistics 27 programs (IBM, Chicago, IL). The data are presented as means and standard errors of the mean. No sex effects were detected. One- or two-way ANOVA or repeated measures ANOVA (RMANOVA) were used, followed by Bonferroni corrected post-hoc analyses. A p<0.05 was considered significant. All behavioral results were plotted using GraphPad Prism.

C57BL/6J mice [2] = assay: Head twitch response (HTR) in mice; type: in vivo; details: first 30 min after injection (i.p.)
Protocol: as §1
Head twitch response: HTRs were filmed in the open field and were scored following drug administration for 30 min as described in the literature (Acta Crystallographica Section D, 2019, 75:861-877).
as §2

[3] = test system: wild-type (WT) and vesicular monoamine transporter 2 (VMAT2) heterozygous (HET) mice; assay: Tail suspension test (immobility time) in wild-type and VMAT2 heterozygous mice; type: in vivo; details: 30 min after administration; for immobility time during the tail suspension test: compared to vehicle
Protocol: Tail suspension: This test was conducted as described in the literature (Acta Crystallographica Section D, 2010, 66:486-501). […] Immobility times were assessed over 6 min using MedAssociates software.

5-HT2AR [4] = target: T1, 5-HT2AR (Homo sapiens, UniProt P28223); assay: 5-HT2AR binding affinity (Ki), Table 8
T1 construct: expressed in transfected cells; host or cells: Flp-In 293 T-Rex (tetracycline inducible)
T1 sequence (P28223 whole entry): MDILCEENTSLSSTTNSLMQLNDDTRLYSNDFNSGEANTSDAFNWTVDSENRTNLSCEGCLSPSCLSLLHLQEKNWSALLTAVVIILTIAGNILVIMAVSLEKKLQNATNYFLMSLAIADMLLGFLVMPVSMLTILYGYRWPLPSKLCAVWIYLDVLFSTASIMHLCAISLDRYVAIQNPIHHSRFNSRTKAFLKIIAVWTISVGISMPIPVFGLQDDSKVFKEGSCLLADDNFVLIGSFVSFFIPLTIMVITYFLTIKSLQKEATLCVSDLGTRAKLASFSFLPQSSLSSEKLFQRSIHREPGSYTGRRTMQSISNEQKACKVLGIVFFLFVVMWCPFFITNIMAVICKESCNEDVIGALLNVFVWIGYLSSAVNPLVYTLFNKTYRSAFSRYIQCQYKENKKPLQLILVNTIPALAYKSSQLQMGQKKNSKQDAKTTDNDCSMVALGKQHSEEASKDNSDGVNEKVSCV

5-HT2CR [5] = target: T2, 5-HT2CR (Homo sapiens, UniProt P28335); assay: Calcium flux assay (FLIPR, Fluo-4), 5-HT2CR stable cell line; type: cell-based; details: for 5-HT2CR Rmax ± S.E.M: value in parentheses
T2 sequence (P28335 33-458): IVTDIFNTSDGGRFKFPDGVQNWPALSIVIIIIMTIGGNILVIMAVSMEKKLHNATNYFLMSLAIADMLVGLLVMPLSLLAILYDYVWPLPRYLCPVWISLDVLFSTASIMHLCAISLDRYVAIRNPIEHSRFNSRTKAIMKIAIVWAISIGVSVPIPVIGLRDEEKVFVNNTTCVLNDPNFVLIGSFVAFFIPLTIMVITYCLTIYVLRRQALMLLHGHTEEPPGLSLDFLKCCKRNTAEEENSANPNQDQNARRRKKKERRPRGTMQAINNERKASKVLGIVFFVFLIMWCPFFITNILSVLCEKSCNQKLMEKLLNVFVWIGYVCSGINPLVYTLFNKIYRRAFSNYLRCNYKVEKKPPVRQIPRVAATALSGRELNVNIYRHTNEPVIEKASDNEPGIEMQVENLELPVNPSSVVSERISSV
Protocol: (§3) Stable cell lines for 5-HT2AR, 5-HT2BR and 5-HT2CR generated using the Flp-In 293 T-Rex Tetracycline inducible system (Invitrogen). Tetracycline-induced cells were seeded in 384-well poly-L-lysine plates at a density of 10,000 cells/well in DMEM containing 1% dialyzed FBS at least 16-24 hr before the calcium flux assay. On the day of the assay, the cells were incubated (20 ul/well) for 1 hr at 37° C. with Fluo-4 Direct dye (Invitrogen) reconstituted in FLIPR buffer (1×HBSS, 2.5 mM probenecid, and 20 mM HEPES, pH 7.4). After dye loading, cells were placed in a FLIPR^TETRA fluorescence imaging plate reader (Molecular Dynamics). Drug dilutions were prepared at 3× final concentration in drug buffer (1×HBSS, 20 mM HEPES, 0.1% BSA, 0.01% ascorbic acid, pH 7.4) and aliquoted into 384-well plates and placed in the FLIPR^TETRA for drug stimulation. The fluidics module and plate reader of the FLIPR^TETRA were programmed to read baseline fluorescence for 10s (1 read/s), then 10 ul of drug/well was added and read for 5 min (1 read/s). Fluorescence in each well was normalized to the average of the first 10 reads (i.e., baseline fluorescence). Then, the maximum-fold increase, which occurred within the first 60 s after drug addition, was determined and fold over baseline was plotted as a function of drug concentration. Data were normalized to % 5-HT stimulation and analyzed using “log(agonist) vs. response” in GraphPad Prism 9.0.

5-HT2CR [6] = target: T2, 5-HT2CR; assay: 5-HT2CR binding affinity (Ki), Table 8
5-HT2AR [7] = target: T1, 5-HT2AR; assay: Calcium flux assay (FLIPR, Fluo-4), 5-HT2AR stable cell line; type: cell-based; details: for 5-HT2AR Rmax ± S.E.M: value in parentheses
Protocol: as §3

5-HT2BR [8] = target: T3, 5-HT2BR (Homo sapiens, UniProt P41595); assay: 5-HT2BR binding affinity (Ki), Table 8
T3 construct: expressed in transfected cells; host or cells: Flp-In 293 T-Rex (tetracycline inducible)
T3 sequence (P41595 whole entry): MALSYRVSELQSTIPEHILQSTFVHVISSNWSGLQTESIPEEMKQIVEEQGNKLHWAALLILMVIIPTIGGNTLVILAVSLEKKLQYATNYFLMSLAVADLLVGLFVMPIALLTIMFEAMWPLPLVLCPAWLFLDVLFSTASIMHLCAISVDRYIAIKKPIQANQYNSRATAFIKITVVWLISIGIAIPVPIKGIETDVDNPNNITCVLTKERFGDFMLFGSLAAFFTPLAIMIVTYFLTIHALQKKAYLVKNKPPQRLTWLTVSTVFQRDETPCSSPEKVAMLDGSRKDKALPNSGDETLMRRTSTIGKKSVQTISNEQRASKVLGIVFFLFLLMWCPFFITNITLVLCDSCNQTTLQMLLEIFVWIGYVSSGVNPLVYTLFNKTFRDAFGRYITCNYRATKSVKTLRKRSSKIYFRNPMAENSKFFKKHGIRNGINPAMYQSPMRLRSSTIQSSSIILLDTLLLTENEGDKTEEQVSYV

5-HT2BR [9] = target: T3, 5-HT2BR; assay: Calcium flux assay (FLIPR, Fluo-4), 5-HT2BR stable cell line; type: cell-based; details: for 5-HT2BR Rmax ± S.E.M: value in parentheses
Protocol: Stable cell lines for 5-HT2AR, 5-HT2BR and 5-HT2CR generated using the Flp-In 293 T-Rex Tetracycline inducible system (Invitrogen). Tetracycline-induced cells were seeded in 384-well poly-L-lysine plates at a density of 10,000 cells/well in DMEM containing 1% dialyzed FBS at least 16-24 hr before the calcium flux assay. On the day of the assay, the cells were incubated (20 ul/well) for 1 hr at 37° C. with Fluo-4 Direct dye (Invitrogen) reconstituted in FLIPR buffer (1×HBSS, 2.5 mM probenecid, and 20 mM HEPES, pH 7.4). After dye loading, cells were placed in a FLIPR^TETRA fluorescence imaging plate reader ([…]). Drug dilutions were prepared at 3× final concentration in drug buffer (1×HBSS, 20 mM HEPES, 0.1% BSA, 0.01% ascorbic acid, pH 7.4) and aliquoted into 384-well plates and placed in the FLIPR^TETRA for drug stimulation. The fluidics module and plate reader of the FLIPR^TETRA were programmed to read baseline fluorescence for 10s (1 read/s), then 10 ul of drug/well was added and read for 5 min (1 read/s). Fluorescence in each well was normalized to the average of the first 10 reads (i.e., baseline fluorescence). Then, the maximum-fold increase, which occurred within the first 60 s after drug addition, was determined and fold over baseline was plotted as a function of drug concentration. Data were normalized to % 5-HT stimulation and analyzed using “log(agonist) vs. response” in GraphPad Prism 9.0.

[10] = bracketed value below EC50, read-out: 5-HT2AR pEC50 ± S.E.M (converted)
[11] = bracketed value below Ki, read-out: 5-HT2AR pKi ± S.E.M (converted)
[12] = bracketed value below Ki, read-out: 5-HT2CR pKi ± S.E.M (converted)
[13] = bracketed value below Ki, read-out: 5-HT2BR pKi ± S.E.M (converted)
[14] = bracketed value below EC50, read-out: 5-HT2BR pEC50 ± S.E.M (converted)

Compound | Ki (5-HT2AR [4]; read-out: 5-HT2AR Ki) [nM] | EC50 (5-HT2CR [5]; read-out: 5-HT2CR EC50) [nM] | 5-HT2CR Rmax ± S.E.M (5-HT2CR [5]) | Ki (5-HT2CR [6]; read-out: 5-HT2CR Ki) [nM] | EC50 (5-HT2AR [7]; [10]) [nM] | 5-HT2AR Rmax ± S.E.M (5-HT2AR [7]) | Ki (5-HT2BR [8]; read-out: 5-HT2BR Ki) [nM] | EC50 (5-HT2BR [9]; read-out: 5-HT2BR EC50) [nM] | 5-HT2BR Rmax ± S.E.M (5-HT2BR [9]) | Ki (5-HT2AR [4]; [11]) [nM] | Ki (5-HT2CR [6]; [12]) [nM] | Ki (5-HT2BR [8]; [13]) [nM] | 5-HT2CR EC50 (5-HT2CR [5]) | EC50 (5-HT2AR [7]; read-out: 5-HT2AR EC50) [nM] | 5-HT2BR EC50 (5-HT2BR [9]) | other results
CCN(CC)C(=O)[C@@H]1C=C2c3cccc4[nH]cc(c34)C[C@H]2N(C)C1 [LSD, reference compound] |  |  |  |  |  |  |  |  |  |  |  |  |  |  |  | distance travelled in the open field, locomotion post injection (31-60 min) (C57BL/6J mice [1]; 0.3 mg/kg LSD): significantly higher; head twitch responses (HTRs) (C57BL/6J mice [2]; 0.3 mg/kg LSD): stimulated
C[C@@H]1C=C(c2c[nH]c3ncccc23)CN(C)C1 [compound 33, (R)-3-(1,5-dimethyl-1,2,5,6-tetrahydropyridin-3-yl)-1H-pyrrolo[2,3-b]pyridine] | 880 | 3250 | (51.7% | 480 | 110 | (73.3% | 440 | 700 | (50.5% |  |  |  |  |  |  | distance travelled in the open field, locomotion post injection (31-60 min) (C57BL/6J mice [1]; 1 mg/kg): do not enhance locomotion; also recorded: not different from one another; immobility time during the tail suspension test, HET mice versus WTs given the same treatment ([3]; 1 mg/kg i.p., p=0.051): less time immobile; immobility time during the tail suspension test ([3]; VMAT2 HET mice, 0.5 mg/kg i.p.): reduced immobility time significantly; immobility time during the tail suspension test ([3]; VMAT2 HET mice, 1 mg/kg i.p., 1 mg/kg): restored wild-type levels of mobility; also recorded: reduced immobility time significantly; immobility time during the tail suspension test ([3]; WT mice, 0.5 mg/kg i.p.): no effects; immobility time during the tail suspension test ([3]; WT mice, 1 mg/kg i.p.): no effects; head twitch responses (HTRs) (C57BL/6J mice [2]; 1 mg/kg): neither 38 nor 33 induced substantial HTRs; also recorded: not different from each other
C1=C(c2c[nH]c3ncccc23)CNCC1 [compound 49, 3-(1,2,5,6-tetrahydropyridin-3-yl)-1H-pyrrolo[2,3-b]pyridine] |  | 820 | (45.9% |  | 151 | (43.9% |  | 630 | (34.8% | 398 | 288 | 257 |  |  |  | EC50 (5-HT2CR [5]; bracketed value below EC50, read-out: 5-HT2CR pEC50 ± S.E.M (converted)): 832 nM
c1cnc2[nH]cc(C3CCCNC3)c2c1 (single isomer, unassigned) [compound 51, 3-(piperidin-3-yl)-1H-pyrrolo[2,3-b]pyridine] | 2730 |  |  | 480 |  | (18.2% | 500 |  |  |  |  |  | antagonist | 4210 | antagonist | 
C[C@@H]1C=C(c2c[nH]c3ncccc23)CN(CC2CC2)C1 [compound 45, (R)-3-(1-(cyclopropylmethyl)-5-methyl-1,2,5,6-tetrahydropyridin-3-yl)-1H-pyrrolo[2,3-b]pyridine] | 2920 |  |  | 4410 | 457 | (25.0% | > 10000 |  |  | 2880 |  |  | antagonist | 450 | antagonist | 
C[C@H]1C=C(c2c[nH]c3ncccc23)CN(C)C1 [compound 34, (S)-3-(1,5-dimethyl-1,2,5,6-tetrahydropyridin-3-yl)-1H-pyrrolo[2,3-b]pyridine] | 1520 |  |  | 750 |  | (7.1% | 640 |  |  |  | 741 |  | antagonist | 1140 | antagonist | 
C[C@@H]1C=C(c2c[nH]c3ncccc23)CN(Cc2cnco2)C1 [compound 47, (R)-5-((3-methyl-5-(1H-pyrrolo[2,3-b]pyridin-3-yl)-3,6-dihydropyridin-1(2H)-yl)methyl)oxazole] | 7190 | > 10000 |  | > 10000 | 977 | (68.3% | > 10000 | 940 | (75.8% |  |  |  |  | 990 |  | 
CCCCCN1CC(c2cncc(Cl)c2)=C[C@H](C)C1 [Compound 10, 5′-chloro-5-methyl-1-pentyl-1,2,5,6-tetrahydro-3,3′-bipyridine] | 7010 | > 10000 |  | 1660 | 331 | (68.6% |  |  | (88.9% |  |  | 5.01 |  |  |  | EC50 (5-HT2BR [9]; [14]): 24.5 nM
Cc1ncc(CCN2CC(c3c[nH]c4ncccc34)=C[C@H](C)C2)cn1 [compound 41, (S)-3-(5-methyl-1-(2-(2-methylpyrimidin-5-yl)ethyl)-1,2,5,6-tetrahydropyridin-3-yl)-1H-pyrrolo[2,3-b]pyridine] | 25 |  |  | 30 |  |  | 820 |  |  | 25.7 | 28.8 |  | antagonist |  | antagonist | 5-HT2AR EC50 (5-HT2AR [7]): antagonist
CCCN1CC(c2cncc(Cl)c2)=C[C@H](C)C1 [Compound 16, 5′-Chloro-5-methyl-1-propyl-1,2,5,6-tetrahydro-3,3′-bipyridine] | 7320 | 6760 | (34.4% | 6520 | 1050 | (48.7% |  |  | (74.9% |  | 6310 | 13.2 |  | 1060 |  | EC50 (5-HT2BR [9]; [14]): 20 nM
